According to ChEMBL document CHEMBL1201862, “PubChem BioAssay data set” (2004):
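1) Cells in 96-well plates. 2) Compound, 48 h, 5 concentrations. 3) Linear interpolation between surrounding doses. 4) Unreached endpoint = highest concentration. GI50: concentration for 50% inhibition of growth.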 The source made the active and inactive calls. Cut-off read from the data, not from the text of the source: active = GI50 up to about 1.1 µM and inactive = higher.

Assays:
Test in all cases: NCI tumour cell line growth inhibition, 48 h
SNB-75 = system: SNB-75
SK-MEL-5 = system: SK-MEL-5
SK-MEL-2 = system: SK-MEL-2
SF-295 = system: SF-295
OVCAR-4 = system: OVCAR-4
COLO 205 = system: COLO 205
MOLT-4 = system: MOLT-4
SF-539 = system: SF-539
IGROV-1 = system: IGROV-1
A549 = system: A549
SK-MEL-28 = system: SK-MEL-28
786-0 = system: 786-0
HOP-92 = system: HOP-92
UACC-257 = system: UACC-257
HCT-116 = system: HCT-116
HCC 2998 = system: HCC 2998
HT-29 = system: HT-29
HOP-62 = system: HOP-62

Measured: GI50

Cc1c(C(=O)CC(=O)C(=O)Nc2ccc(Cl)cc2)[n+]([O-])c2ccccc2[n+]1[O-]
inactive: SNB-75 18.7 µM | SK-MEL-5 > 100 µM | SK-MEL-2 > 100 µM | SF-295 > 100 µM | OVCAR-4 > 100 µM | COLO 205 > 100 µM | MOLT-4 > 100 µM | SF-539 > 100 µM | IGROV-1 > 100 µM | A549 > 100 µM | SK-MEL-28 > 100 µM | 786-0 > 100 µM | HOP-92 > 100 µM | UACC-257 > 100 µM | HCT-116 > 100 µM

Cc1cc(C)nc(NS(=O)(=O)c2ccc(NC(=O)c3cccc4c(Nc5ccc(S(=O)(=O)N=C(N)N)cc5)c5ccc(Cl)cc5nc34)cc2)n1
inactive: SNB-75 > 100 µM | SF-295 24.1 µM | MOLT-4 15.6 µM | SF-539 17.2 µM | HCC 2998 19.8 µM | HT-29 33.1 µM | SK-MEL-28 37.4 µM | HOP-62 43.7 µM | 786-0 17.7 µM | UACC-257 20.2 µM | HCT-116 17.4 µM

C/C(O)=C1\CC2CN3CCc4c([nH]c5ccccc45)C3CC2CC1=O (centres undefined)
inactive: SNB-75 21.4 µM | SK-MEL-5 55.2 µM | SK-MEL-2 43 µM | SF-295 > 100 µM | OVCAR-4 46 µM | COLO 205 > 100 µM | MOLT-4 21.8 µM | SF-539 75.2 µM | HCC 2998 58.9 µM | HT-29 67.1 µM | IGROV-1 > 100 µM | A549 > 100 µM | SK-MEL-28 > 100 µM | HOP-62 > 100 µM | 786-0 38 µM | UACC-257 > 100 µM | HCT-116 52.1 µM

COc1ccc(C2S/C(=C\c3ccccc3)C(=O)N2NC(=O)Cc2ccccc2)cc1 (centres undefined)
inactive: SNB-75 > 100 µM | SK-MEL-5 > 100 µM | SK-MEL-2 > 100 µM | SF-295 > 100 µM | OVCAR-4 > 100 µM | COLO 205 > 100 µM | MOLT-4 > 100 µM | SF-539 > 100 µM | HT-29 > 100 µM | IGROV-1 > 100 µM | A549 > 100 µM | SK-MEL-28 26.1 µM | HOP-62 > 100 µM | 786-0 > 100 µM | HOP-92 > 100 µM | UACC-257 > 100 µM | HCT-116 > 100 µM

CC(C)(C)N/N=C(\C(=O)Nc1nnc(S)[nH]1)C1C(=O)Nc2ccccc2[S+]1[O-] (centres undefined)
inactive: SNB-75 > 100 µM | SK-MEL-5 > 100 µM | SK-MEL-2 > 100 µM | SF-295 > 100 µM | OVCAR-4 > 100 µM | COLO 205 > 100 µM | MOLT-4 > 100 µM | SF-539 > 100 µM | HCC 2998 > 100 µM | HT-29 > 100 µM | IGROV-1 > 100 µM | A549 > 100 µM | SK-MEL-28 > 100 µM | HOP-62 > 100 µM | 786-0 > 100 µM | UACC-257 > 100 µM | HCT-116 > 100 µM

C[C@]12CCc3nonc3C1CC[C@@H]1C2CC[C@]2(C)NC(=O)CCC12 (some centres undefined)
inactive: SNB-75 > 100 µM | SK-MEL-5 > 100 µM | SK-MEL-2 > 100 µM | SF-295 > 100 µM | OVCAR-4 > 100 µM | COLO 205 > 100 µM | MOLT-4 > 100 µM | SF-539 > 100 µM | HT-29 > 100 µM | IGROV-1 > 100 µM | A549 > 100 µM | SK-MEL-28 > 100 µM | HOP-62 > 100 µM | 786-0 > 100 µM | HOP-92 > 100 µM | UACC-257 > 100 µM | HCT-116 > 100 µM
